This note sets out measurements from patent publication US4939142A, “Substituted styrene derivatives” (priority 1989, dated 1990).

The structures appear in SMILES notation. Read-outs that look alike come from different tables or passages of the source.

One series can be described thus: in vivo. The settings on record: mouse, in vivo, po. The protocol:
Male and female white mice (CFLP strain, 18-22 g) are used, 10 animals per dose. The test compounds are administered orally in a volume of 20 ml/kg. After administration the mice are observed for a period of 7 days. The animals are kept in plastic boxes, on wood litter, at room temperature. The animals receive standard mouse fodder and tap water ad libitum.

Another series concerns pentetrazole spasm. Put plainly: Inhibition of pentetrazol spasm on mice. The settings on record: for ED50: Mus musculus, po; for Therapeutical index: Table V, pentetrazole spasm, LD50/ED50.
The test system of a further series is motility. Description: animal or person. It counts as in vivo. The settings on record: for ED50: Mus musculus, po; for Therapeutical index: Table II, motility inhibition, LD50/ED50. How it is done:
The test is accomplished according to the method of Borsy et al. in a 10-channel Dews system equipment, whereby 3 mice are used per channel. The test compound or the carrier, respectively, is administered orally, and one hour after the said treatment the animals are placed into the apparatus and the number of the interruptions of infrared radiation is registered for 30 minutes.
The results are summarized in Table II and documented by means of suitable statistics for each experiment.
[J. Borsy, E. Csanyi, I. Lazar: Arch. Int. Pharmacodyn. 124, 1 (1960)].

A further series has as its system acetic acid writhing. Put plainly: Acetic acid "writhing test" on mice (Newbould). It counts as in vivo, white mice. The settings on record: for ED50: Mus musculus; for Therapeutical index: acetic acid writhing, LD50/ED50. How it is done: In the period between the 5th and 10th minutes following the administration of acetic acid the number of the characteristic "writhing" responses is counted for each animal and the "total writhing number" (within 5 minutes) is expressed as the percentage of the value obtained for the control animals. The mice are treated with the test compound and the carrier, respectively, orally 1 hour before the administration of acetic acid. 12 animals are used per dose.
[Newbould, B. D.: Brit.
(In writhing tests, fewer writhes than in controls are read as antinociception.)

In the next series the test system is hexobarbital narcosis. Description: Hexobarbital narcosis potentiating effect. The settings on record: for ED50: Mus musculus, po; for Therapeutical index LD50 /ED50: Table I, hexobarbital narcosis.
The subject of series [1] is nicotine spasm and lethality. Put plainly: Inhibition of nicotine spasm and lethality on mice (Stone). The settings on record: Table VIII; for ED50: Mus musculus, oral, 1 h before nicotine 1.4 mg/kg i.v.; for Therapeutical index: nicotine spasm and lethality, LD50/ED50. Format: in vivo. The text has this:
[Stone, C. C., Mecklenburg, K. L., Torchiana, M. L.: Arch. Int.

In the next series the test system is yohimbin toxicity. Put plainly: animal or person. The settings on record: for ED50: Mus musculus; for Therapeutical index: Table IV, yohimbin toxicity, LD50/ED50. How it is done: The test is carried out according to the method of Quinton. Groups consisting of 10 mice are used for each dose. The animal groups are treated with the suitable doses of the test compounds while the control group is treated with a carrier. An hour after the treatment a sublethal dose of yohimbin is administered intraperitoneally in a volume of 20 ml/kg. The perished animals are counted after 1 and 24 hours.

[2] abbreviates: Table VII, oral, 1 h before acetic acid i.p., read-out: ED50.

Procedure for hexobarbital narcosis: The test is carried out on white mice. Groups consisting of six mice are used for each dose and test compound. The test compound is administered orally and an hour after this treatment narcosis is induced by means of a 40 mg/kg i.v. dose of hexobarbital. The control group receives carrier instead of the test compound.
Those mice are considered to be having a positive reaction which show a narcosis time at least 2.5 times longer than that of the control group. The ED50 values thus transformed are calculated.
Procedure for pentetrazole spasm: The modified method of Benziger and Hane is used on white mice. Groups consisting of 6 animals are used for each dose. […] The test compounds are administered orally one hour before the treatment with pentetrazole; in the control group the animals obtain the carrier orally at the same points of time.
The therapeutical index data disclosed in the above Tables are calculated by means of the following equation: [formula]

With `COc1ccc(/C=C/C2=CC(=N/OCC(C)CN(C)C)/CC(C)(C)C2)cc1` (racemic) [Example 25, D,L-5,5-Dimethyl-3-(E)-[(4'-methoxy-phenyl)-vinyl]-1-(E)-(2"-methyl-3"-dimethylamino-propoxyimino)-2-cyclohexane], the LD50 (usually the dose at which mortality reaches 50%) at 168 h in the series “in vivo” came to 1300 mg/kg. Further, the ED50 (commonly the dose that gives a 50% effect, or the effect in half of the subjects) in the series with pentetrazole spasm was 15.5 mg/kg; in the series on motility, about 200 mg/kg; with acetic acid writhing (po), about 200 mg/kg. Also, the Therapeutical index is recorded as 83.9 in the series with pentetrazole spasm, 6.5 in the series with motility and 65 in the series on acetic acid writhing (Table VII).
In the case of `CNC1=Nc2ccc(Cl)cc2C(c2ccccc2)=[N+]([O-])C1` [Chlordiazepoxid, reference compound], in the series on hexobarbital narcosis, the ED50 came out at 10 mg/kg and the “Therapeutical index LD50 /ED50” value was 62.0. In the series “in vivo”, this compound had an LD50 at 168 h of 620 mg/kg.
In the case of `CN1CCN(CCCO/N=C2C=C(/C=C/c3ccccc3)CC(C)(C)C/2)CC1` [Example 2, 5,5-Dimethyl-3-(E)-phenyl-vinyl-1-(E)-(4'-methyl-1'-piperazinyl-propoxyimino)-2-cyclohexene], in “in vivo”, the LD50 at 168 h is 2000 mg/kg. For the same compound, the ED50 in series [1] came out at 78 mg/kg; in the series on pentetrazole spasm, 140 mg/kg; in the series on motility, 190 mg/kg. In addition, the figures for the Therapeutical index (in series [1]; in the series on pentetrazole spasm; with motility) were 25.6, 14.3 and 10.5, respectively.
`CN1CCN(CCCO/N=C2C=C(/C=C/c3ccc(Cl)cc3)CC(C)(C)C/2)CC1` [Example 4, 5,5-Dimethyl-3-(E)-[(4'-chloro-phenyl)-vinyl]-1-(E)-(4"-methyl-1"-piperazinyl-propoxyimino)-2-cyclohexene]: the LD50 at 168 h in “in vivo” is 2000 mg/kg. In the series on pentetrazole spasm, this compound gave an ED50 of 180 mg/kg and a Therapeutical index of 11.1.
`CN(C)CCCO/N=C1C=C(/C=C/c2ccc(Cl)cc2)CC(C)(C)C/1` [Example 5, 5,5-Dimethyl-3-(E)-[(4'-chloro-phenyl)-vinyl]-1-(E)-(3"-dimethylamino-propoxyimino)-2-cyclohexene]: the LD50 at 168 h in “in vivo” came to 2000 mg/kg. Besides, the values for the ED50 with pentetrazole spasm, in the series with motility and with acetic acid writhing (setting [2]) were 125 mg/kg, 120 mg/kg and 155 mg/kg, respectively. Also, the Therapeutical index is given as 16.0 in the series on pentetrazole spasm, 17.0 in the series with motility and 12.9 in the series with acetic acid writhing (Table VII).
On to `CN(C)CCCO/N=C1C=C(/C=C/c2c(Cl)cccc2Cl)CC(C)(C)C/1` [Example 7, 5,5-Dimethyl-3-[(2',6'-dichloro-phenyl)-vinyl]-1-(E)-(3"-dimethylamino-propoxyimino)-2-cyclohexene], for which the ED50 in the series with yohimbin toxicity was 60 mg/kg; with pentetrazole spasm it was 80 mg/kg. Also, the values for the Therapeutical index (in the series on yohimbin toxicity; in series [1]; in the series on pentetrazole spasm) were 33.3, 25 and 25.0, respectively. The compound further registered an LD50 at 168 h in “in vivo” of 2000 mg/kg.
In the series on yohimbin toxicity, `CN(C)CCCO/N=C1C=C(/C=C/c2ccccc2Cl)CC(C)(C)C/1` [Example 9, 5,5-Dimethyl-3-(E)-[(2'-chloro-phenyl)-vinyl]-1-(E)-(3"-dimethylamino-propoxyimino)-2-cyclohexene] yielded an ED50 of 50 mg/kg and a Therapeutical index of 40. Also, the LD50 at 168 h in the series “in vivo” was determined as 2000 mg/kg. In the series with pentetrazole spasm, the 50% effect level (ED50) was put at a dose of 160 mg/kg and the Therapeutical index was 12.5.
With `COc1ccc(/C=C/C2=CC(=N/OCCCN(C)C)/CC(C)(C)C2)cc1OC` [Example 10, 5,5-Dimethyl-3-(E)-[(3',4'-dimethoxy-phenyl)-vinyl]-1-(E)-(3"-dimethylamino-propoxyimino)-2-cyclohexene], the values for the ED50 in the series on yohimbin toxicity, with motility and with acetic acid writhing (setting [2]) were 40 mg/kg, 60 mg/kg and 153 mg/kg, respectively. Moreover, the Therapeutical index with yohimbin toxicity worked out at 25; in the series on motility, 16.7; in the series with acetic acid writhing (Table VII), 6.5. The compound further came in with a 50% lethal dose (LD50) at 168 h in the series “in vivo” of 1000 mg/kg.
With `COc1ccc(/C=C/C2=CC(=N/OCCCN(C)C)/CC(C)(C)C2)cc1` [Example 11, 5,5-Dimethyl-3-(E)-[(4'-methoxy-phenyl)-vinyl]-1-(E)-(3"-dimethylamino-propoxyimino)-2-cyclohexene], the values for the ED50 in the series with yohimbin toxicity, in the series with hexobarbital narcosis and with pentetrazole spasm were 40 mg/kg, 140 mg/kg and 78 mg/kg, respectively. For the same compound, the figures for the Therapeutical index with yohimbin toxicity and in the series with pentetrazole spasm were 50 and 25.6, respectively. The “Therapeutical index LD50 /ED50” value with hexobarbital narcosis worked out at 14.3. In the series “in vivo”, this compound had an LD50 at 168 h of 2000 mg/kg.
With `CC(C)N(CCO/N=C1C=C(/C=C/c2ccccc2)CC(C)(C)C/1)C(C)C` [Example 12], the 50% effective dose (ED50) came to 100 mg/kg in the series on hexobarbital narcosis, 23 mg/kg in the series on pentetrazole spasm and 50 mg/kg in the series on acetic acid writhing (setting [2]). This compound also registered an LD50 at 168 h in “in vivo” of 1000 mg/kg. Also, the results for the Therapeutical index with pentetrazole spasm and in the series on acetic acid writhing (Table VII) were 43.5 and 20.0, respectively.
Compound `CC(C)N(CCO/N=C1C=C(/C=C/c2ccc(Cl)cc2)CC(C)(C)C/1)C(C)C` [Example 14, 5,5-Dimethyl-3-(E)-[(4'-chloro-phenyl)-vinyl]-1-(E)-2'"-[bis-(2"-methyl-ethyl)-amino-ethoxyimino]-2-cyclohexene] had an LD50 at 168 h in “in vivo” of 2000 mg/kg. In the series on pentetrazole spasm, the ED50 is 70 mg/kg and the Therapeutical index came to 28.5.
`CN(C)CCO/N=C1C=C(/C=C/c2ccc(Cl)cc2)CC(C)(C)C/1` [Example 15, 5,5-Dimethyl-3-(E)-[(4'-chloro-phenyl)-vinyl]-1-(E)-(2"-dimethylamino-ethoxyimino)-cyclohexene]: in the series with hexobarbital narcosis, the ED50 was 25 mg/kg and the “Therapeutical index LD50 /ED50” value came to 80.0. Moreover, in “in vivo”, the LD50 at 168 h came to 2000 mg/kg. Further, in series [1], the ED50 is 70 mg/kg and the Therapeutical index is given as 28.6. In the series on pentetrazole spasm, this compound had a median effective dose (ED50) of 120 mg/kg and a Therapeutical index of 16.6.
For the compound `CC1(C)CC(/C=C/c2ccccc2)=CC(=N/OCCN2CCCCC2)/C1` [Example 16, 5,5-Dimethyl-3-(E)-phenyl-vinyl-1-(E)-(2'-N-piperidyl-ethyl)-oxyimino-2-cyclohexene], the ED50 in the series with hexobarbital narcosis was 40 mg/kg; in series [1], 70 mg/kg; in the series with pentetrazole spasm, 185 mg/kg; in the series with motility, 150 mg/kg. Also, the “Therapeutical index LD50 /ED50” value with hexobarbital narcosis stood at 46.0. In addition, the LD50 at 168 h in “in vivo” turned out to be 1850 mg/kg. Also, the figures for the Therapeutical index (in series [1]; with pentetrazole spasm; in the series on motility) were 26.4, 10.0 and 12.3, respectively.
With `CC1(C)CC(/C=C/c2ccccc2)=CC(=N/OCCN2CCOCC2)/C1` [Example 17, 5,5-Dimethyl-3-(E)-phenyl-vinyl-1-(E)-(N-morpholino-ethoxyimino)-2-cyclohexene], the ED50 was determined as 13 mg/kg with hexobarbital narcosis, 40 mg/kg in series [1] and 148 mg/kg in the series on pentetrazole spasm. Besides, the “Therapeutical index LD50 /ED50” value with hexobarbital narcosis was 123.0. In the series “in vivo”, this compound registered an LD50 at 168 h of 1600 mg/kg. The Therapeutical index in series [1] amounted to 40.0; with pentetrazole spasm, 10.8.
As for `CCN(CC)CCO/N=C1C=C(/C=C/c2ccc(OC)cc2)CC(C)(C)C/1` [Example 23, 5,5-Dimethyl-3-(E)-[(4'-methoxy-phenyl)-vinyl]-1-(E)-(2"-diethylamino-ethoxyimino)-2-cyclohexene], the LD50 at 168 h in the series “in vivo” was 1000 mg/kg. In addition, in the series with pentetrazole spasm, the ED50 worked out at 58 mg/kg and the Therapeutical index turned out to be 17.2.
The like results for `CC1(C)CC(/C=C/c2ccc(Cl)cc2)=CC(=N/OCCCN2CCOCC2)/C1` [Example 24, 5,5-Dimethyl-3-(E)-[(4'-chloro-phenyl)-vinyl]-1-(E)-(N-morpholino-propoxyimino)-2-cyclohexane] were, in that order, over 1000 mg/kg, 110 mg/kg and over 9.1.
As for `CN(C)CCCN1c2ccccc2CCc2ccccc21` [Imipramin, reference compound], the ED50 in the series with yohimbin toxicity stood at 21 mg/kg.
For `CCCC(C)(COC(N)=O)COC(N)=O` [Meprobamate, reference compound], in the series on hexobarbital narcosis, the ED50 was determined as 260 mg/kg and the “Therapeutical index LD50 /ED50” value is recorded as 4.2. For the same compound, the 50% effect level in the series with motility (ED50) was put at a dose of 270 mg/kg.
Take `CC(=O)Nc1ccc(O)cc1` [Paracetamol, reference compound]: in the series on acetic acid writhing (setting [2]), the median effective dose (ED50) is 180 mg/kg.
In series [1], `OC(CCN1CCCCC1)(c1ccccc1)C1CCCCC1` (stereo not shown) [Trihexyphenidyl, reference compound] gave an ED50 of 20 mg/kg.
Take `CCOc1ccccc1OCC1CNCCO1` (stereo not shown) [Viloxazin, reference compound]: the ED50 with yohimbin toxicity is 20 mg/kg.
